Assay [1] concerns B16F10 mouse melanoma cells. Kind of assay: B16F10 IFNγ-induced cellular growth inhibition assay. It counts as cell-based. The following applies: Mus musculus, B16-F10, 33 μM compound. An outline of the steps: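 B16F10 cells (500/well, DMEM + 10% FBS) dosed in triplicate at 100 μM to 0.001 μM (0.1% DMSO) with or without 0.5 ng/mL final mouse IFNγ. Confluence imaged every 6 h for 5 days; % growth inhibition calculated versus DMSO/with-IFNγ control once DMSO/no-IFNγ wells exceeded 95% confluence.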

The target of assay [2] is T1, His tagged PTPN2 (TC45) protein (Homo sapiens, UniProt P17706).
T1 construct: made in house
T1 sequence (P17706 with tags, fused parts or gaps isoform P17706-2): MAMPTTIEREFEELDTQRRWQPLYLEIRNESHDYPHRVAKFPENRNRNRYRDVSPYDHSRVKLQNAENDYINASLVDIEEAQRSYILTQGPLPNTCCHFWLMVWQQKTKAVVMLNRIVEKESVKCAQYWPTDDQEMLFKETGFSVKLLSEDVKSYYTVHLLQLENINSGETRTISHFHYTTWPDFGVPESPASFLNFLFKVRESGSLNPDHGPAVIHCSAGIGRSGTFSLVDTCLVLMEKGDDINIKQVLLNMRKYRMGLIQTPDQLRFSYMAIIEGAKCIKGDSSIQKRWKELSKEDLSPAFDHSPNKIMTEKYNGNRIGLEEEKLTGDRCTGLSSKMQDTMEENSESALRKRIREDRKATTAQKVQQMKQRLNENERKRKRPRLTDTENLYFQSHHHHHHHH
Description: Mobility shift assay (MSA) for potency of PTPN2 inhibitors. It counts as biochemical. The following applies: read-out: PTPN2 MSA IC50. The procedure, abridged: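 His-tagged PTPN2 TC45 (0.5 nM) was preincubated with compound (12-point, 1:3) for 10 min at room temperature in 50 mM HEPES pH 7.5, 1 mM EGTA, 10 mM EDTA, 0.01% Tween 20, 2 mM DTT. OG488-labelled phospho-insulin-receptor peptide ([…]) was then added for 10 min. After quenching, dephosphorylation was measured by microfluidic mobility shift and IC50 derived from % inhibition.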

The mark [3] stands for this setting: +0.5 ng/mL IFNγ, relative to DMSO control, read-out: % B16F10 growth inhibition (+0.5 ng/mL IFNγ) @ 33 μM.
[4] abbreviates: no IFNγ, read-out: % B16F10 growth inhibition (no IFNγ) @ 33 μM.

SMILES strings stand for the structures. Where two headings read alike, the source gives them in different places.

In the case of `CCN(CC)C(=O)COc1ccc2cc(O)c(N3CC(=O)NS3(=O)=O)c(F)c2c1` [Compound 282, N,N-diethyl-2-{[8-fluoro-6-hydroxy-7-(1,1,4-trioxo-1λ^6,2,5-thiadiazolidin-2-yl)naphthalen-2-yl]oxy}acetamide], the values for the inhibition at 33 µM in assay [1] (setting [3]) and in assay [1] (setting [4]) were 25 to 59% and less than 25%, respectively. Besides, the IC50 in assay [2] is 1 to 10 nM.

As to `CNc1ccc2cc(O)c(N3CC(=O)NS3(=O)=O)c(F)c2c1` [Compound 107, 5-[1-fluoro-3-hydroxy-7-(methylamino)naphthalen-2-yl]-1λ^6,2,5-thiadiazolidine-1,1,3-trione], the inhibition at 33 µM in assay [1] (setting [3]) is 60 to 90%; in assay [1] (setting [4]) it was less than 25%. In addition, the IC50 in assay [2] was 10 to 100 nM.

Take `CCS(=O)(=O)NCCOc1ccc2cc(O)c(N3CC(=O)NS3(=O)=O)c(F)c2c1` [Compound 311, N-(2-{[8-fluoro-6-hydroxy-7-(1,1,4-trioxo-1λ^6,2,5-thiadiazolidin-2-yl)naphthalen-2-yl]oxy}ethyl)ethanesulfonamide]: the inhibition at 33 µM in assay [1] (setting [3]) was 60 to 90%; in assay [1] (setting [4]) it was less than 25%. In assay [2], the IC50 is less than 1 nM.

Consider `COCCOc1ccc2cc(O)c(N3CC(=O)NS3(=O)=O)c(F)c2c1` [Compound 119, 5-[1-fluoro-3-hydroxy-7-(2-methoxyethoxy)naphthalen-2-yl]-1λ^6,2,5-thiadiazolidine-1,1,3-trione], for which the inhibition at 33 µM is 60 to 90% in assay [1] (setting [3]) and less than 25% in assay [1] (setting [4]). Besides, in assay [2], the IC50 is 1 to 10 nM.

For the compound `COc1ccc2cc(O)c(N3CC(=O)NS3(=O)=O)c(F)c2c1F` [Compound 205, 5-(1,8-difluoro-3-hydroxy-7-methoxynaphthalen-2-yl)-1λ^6,2,5-thiadiazolidine-1,1,3-trione], the inhibition at 33 µM in assay [1] (setting [3]) was 25 to 59%; in assay [1] (setting [4]), less than 25%. Besides, the IC50 in assay [2] lay within 10 to 100 nM.

As to `O=C1CN(c2c(O)cc3ccc(OCC4CCNCC4)cc3c2F)S(=O)(=O)N1` [Compound 114, 5-{1-fluoro-3-hydroxy-7-[(piperidin-4-yl)methoxy]naphthalen-2-yl}-1λ^6,2,5-thiadiazolidine-1,1,3-trione], the inhibition at 33 µM in assay [1] (setting [3]) was 60 to 90%; in assay [1] (setting [4]), less than 25%. Also, the half-maximal inhibitory concentration (IC50) in assay [2] fell in the range of 1 to 10 nM.

For `CC(C)CCNc1ccc2cc(O)c(N3CC(=O)NS3(=O)=O)c(F)c2c1` [Compound 200, 5-{1-fluoro-3-hydroxy-7-[(3-methylbutyl)amino]naphthalen-2-yl}-1λ^6,2,5-thiadiazolidine-1,1,3-trione], the values for the inhibition at 33 µM in assay [1] (setting [3]) and in assay [1] (setting [4]) were greater than 90% and less than 25%, respectively. The IC50 in assay [2] lay in the range of 1 to 10 nM.

Consider `O=C1CN(c2c(O)cc3ccc(C(F)F)cc3c2F)S(=O)(=O)N1` [Compound 167, 5-[7-(difluoromethyl)-1-fluoro-3-hydroxynaphthalen-2-yl]-1λ^6,2,5-thiadiazolidine-1,1,3-trione], for which the inhibition at 33 µM in assay [1] (setting [3]) is 60 to 90%; in assay [1] (setting [4]), less than 25%. Besides, the IC50 in assay [2] was 10 to 100 nM.

With `CCOCCOc1ccc2cc(O)c(N3CC(=O)NS3(=O)=O)c(F)c2c1` [Compound 246, 5-[7-(2-ethoxyethoxy)-1-fluoro-3-hydroxynaphthalen-2-yl]-1λ^6,2,5-thiadiazolidine-1,1,3-trione], the inhibition at 33 µM in assay [1] (setting [3]) is 60 to 90%; in assay [1] (setting [4]), less than 25%. In assay [2], the IC50 was 1 to 10 nM.

As to `O=C(COc1ccc2cc(O)c(N3CC(=O)NS3(=O)=O)c(F)c2c1)NCCC1CC1` [Compound 281, N-(2-cyclopropylethyl)-2-{[8-fluoro-6-hydroxy-7-(1,1,4-trioxo-1λ^6,2,5-thiadiazolidin-2-yl)naphthalen-2-yl]oxy}acetamide], the inhibition at 33 µM in assay [1] (setting [3]) was 25 to 59%; in assay [1] (setting [4]), less than 25%. Besides, the IC50 in assay [2] was in the range of 1 to 10 nM.

Turning to `COc1ccc(-c2ccc3cc(O)c(N4CC(=O)NS4(=O)=O)c(F)c3c2)s1` [Compound 227, 5-[1-fluoro-3-hydroxy-7-(5-methoxythiophen-2-yl)naphthalen-2-yl]-1λ^6,2,5-thiadiazolidine-1,1,3-trione], the inhibition at 33 µM in assay [1] (setting [3]) is 60 to 90%; in assay [1] (setting [4]), less than 25%. For the same compound, the IC50 in assay [2] was in the range of 1 to 10 nM.

On to `O=C1CN(c2c(O)cc3ccc(OCCOCC4CC4)cc3c2F)S(=O)(=O)N1` [Compound 212, 5-{7-[2-(cyclopropylmethoxy)ethoxy]-1-fluoro-3-hydroxynaphthalen-2-yl}-1λ^6,2,5-thiadiazolidine-1,1,3-trione], for which the results for the inhibition at 33 µM in assay [1] (setting [3]) and in assay [1] (setting [4]) were 60 to 90% and less than 25%, respectively. The IC50 in assay [2] is 1 to 10 nM.

Consider `O=C1CN(c2c(O)cc3ccc(OCCN4CCCCC4)cc3c2F)S(=O)(=O)N1` [Compound 112, 5-{1-fluoro-3-hydroxy-7-[2-(piperidin-1-yl)ethoxy]naphthalen-2-yl}-1λ^6,2,5-thiadiazolidine-1,1,3-trione], for which the inhibition at 33 µM in assay [1] (setting [3]) was 25 to 59%; in assay [1] (setting [4]), less than 25%. Also, the IC50 in assay [2] is 10 to 100 nM.

Consider `O=C1CN(c2c(O)cc3ccc(OCC(=O)N4CCCC4)cc3c2F)S(=O)(=O)N1` [Compound 283, 5-{1-fluoro-3-hydroxy-7-[2-oxo-2-(pyrrolidin-1-yl)ethoxy]naphthalen-2-yl}-1λ^6,2,5-thiadiazolidine-1,1,3-trione], for which the inhibition at 33 µM in assay [1] (setting [3]) was 25 to 59%; in assay [1] (setting [4]), less than 25%. The IC50 in assay [2] fell in the range of 1 to 10 nM.

On to `O=C1CN(c2c(O)cc3ccc(C4CCNCC4)cc3c2F)S(=O)(=O)N1` [Compound 299, 5-[1-fluoro-3-hydroxy-7-(piperidin-4-yl)naphthalen-2-yl]-1λ^6,2,5-thiadiazolidine-1,1,3-trione], for which the inhibition at 33 µM in assay [1] (setting [3]) was greater than 90%; in assay [1] (setting [4]), less than 25%. In addition, in assay [2], the IC50 lay in the range of 1 to 10 nM.

`O=C1CN(c2c(O)cc3ccc4occc4c3c2F)S(=O)(=O)N1` [Compound 104, 5-(9-fluoro-7-hydroxynaphtho[2,1-b]furan-8-yl)-1λ^6,2,5-thiadiazolidine-1,1,3-trione]: the inhibition at 33 µM is 25 to 59% in assay [1] (setting [3]) and less than 25% in assay [1] (setting [4]). Also, the IC50 in assay [2] was in the range of 1 to 10 nM.

For `O=C1CN(c2c(O)cc3ccc(OCC(F)F)cc3c2F)S(=O)(=O)N1` [Compound 302, 5-[7-(2,2-difluoroethoxy)-1-fluoro-3-hydroxynaphthalen-2-yl]-1λ^6,2,5-thiadiazolidine-1,1,3-trione], the results for the inhibition at 33 µM in assay [1] (setting [3]) and in assay [1] (setting [4]) were 60 to 90% and less than 25%, respectively. Moreover, the IC50 in assay [2] lay within 1 to 10 nM.

For `CC(C)CCOc1ccc2cc(O)c(N3CC(=O)NS3(=O)=O)c(F)c2c1` [Compound 204, 5-[1-fluoro-3-hydroxy-7-(3-methylbutoxy)naphthalen-2-yl]-1λ^6,2,5-thiadiazolidine-1,1,3-trione], the inhibition at 33 µM was 60 to 90% in assay [1] (setting [3]) and less than 25% in assay [1] (setting [4]). The 50% inhibitory concentration (IC50) in assay [2] is less than 1 nM.

`O=C1CN(c2c(O)cc3ccc(C4=CCN(S(=O)(=O)C5CC5)CC4)cc3c2F)S(=O)(=O)N1` [Compound 297, 5-{7-[1-(cyclopropanesulfonyl)-1,2,3,6-tetrahydropyridin-4-yl]-1-fluoro-3-hydroxynaphthalen-2-yl}-1λ^6,2,5-thiadiazolidine-1,1,3-trione]: the inhibition at 33 µM was 25 to 59% in assay [1] (setting [3]) and less than 25% in assay [1] (setting [4]). The half-maximal inhibitory concentration (IC50) in assay [2] was 1 to 10 nM.

On to `N#CCOc1ccc2cc(O)c(N3CC(=O)NS3(=O)=O)c(F)c2c1` [Compound 203, {[8-fluoro-6-hydroxy-7-(1,1,4-trioxo-1λ^6,2,5-thiadiazolidin-2-yl)naphthalen-2-yl]oxy}acetonitrile], for which the inhibition at 33 µM in assay [1] (setting [3]) was 60 to 90%; in assay [1] (setting [4]), less than 25%. Also, in assay [2], the IC50 lay in the range of 1 to 10 nM.

Consider `O=C1CN(c2c(O)cc3ccc(OCCO)cc3c2F)S(=O)(=O)N1` [Compound 277, 5-[1-fluoro-3-hydroxy-7-(2-hydroxyethoxy)naphthalen-2-yl]-1λ^6,2,5-thiadiazolidine-1,1,3-trione], for which the values for the inhibition at 33 µM in assay [1] (setting [3]) and in assay [1] (setting [4]) were 60 to 90% and less than 25%, respectively. Also, the IC50 in assay [2] fell in the range of 1 to 10 nM.

With `CC(C)C/C=C/c1ccc2cc(O)c(N3CC(=O)NS3(=O)=O)c(F)c2c1` [Compound 240, 5-{1-fluoro-3-hydroxy-7-[(1E)-4-methylpent-1-en-1-yl]naphthalen-2-yl}-1λ^6,2,5-thiadiazolidine-1,1,3-trione], the inhibition at 33 µM in assay [1] (setting [3]) was 25 to 59%; in assay [1] (setting [4]), less than 25%. Besides, the IC50 in assay [2] lay in the range of 1 to 10 nM.

`N#C/C=C/c1ccc2cc(O)c(N3CC(=O)NS3(=O)=O)c(F)c2c1` [Compound 208, (2E)-3-[8-fluoro-6-hydroxy-7-(1,1,4-trioxo-1λ^6,2,5-thiadiazolidin-2-yl)naphthalen-2-yl]prop-2-enenitrile]: the inhibition at 33 µM in assay [1] (setting [3]) and in assay [1] (setting [4]) was less than 25% throughout. The half-maximal inhibitory concentration (IC50) in assay [2] fell in the range of 1 to 10 nM.

As usually defined, the IC50 is the concentration needed to halve the response being measured.

The values above are taken from patent US20210009542A1 (Calico Life Sciences LLC, priority 2018, published 2021).
